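Step 1: Grow cells in 96-well plates. Step 2: Expose to compound for 48 hours at 5 concentrations. Step 3: Interpolate endpoints linearly; if unreached, use highest concentration. GI50 = concentration required for 50% inhibition of growth.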 Active and inactive are the calls of the source. No stated cut-off is given here; in the data, active = GI50 up to about 1.1 µM and inactive = higher.
Experiments:
Assay in all cases: growth of human tumour cells (NCI), 48 h
[1] = tested on: MDA-MB-231
[2] = tested on: HOP-62
[3] = tested on: K562
[4] = tested on: BT-549
[5] = tested on: MCF7
[6] = tested on: HCC 2998
[7] = tested on: M14
[8] = tested on: MDA-MB-435
[9] = tested on: U-251
[10] = tested on: Hs-578T
[11] = tested on: MDA-N
[12] = tested on: RXF 393
[13] = tested on: NCI-H226
[14] = tested on: DU-145
[15] = tested on: LXFL 529
[16] = tested on: T47D
[17] = tested on: NCI/ADR-RES
[18] = tested on: 786-0
[19] = tested on: SR
[20] = tested on: PC-3

Row | SMILES | GI50 [1] | GI50 [2] | GI50 [3] | GI50 [4] | GI50 [5] | GI50 [6] | GI50 [7] | GI50 [8] | GI50 [9] | GI50 [10] | GI50 [11] | GI50 [12] | GI50 [13] | GI50 [14] | GI50 [15] | GI50 [16] | GI50 [17] | GI50 [18] | GI50 [19] | GI50 [20]
1 | Cn1c(=O)c2nc3sc4c(n3c2n(C)c1=O)C(=O)c1ccccc1C4=O | > 42.4 µM (inactive) | > 38.9 µM (inactive) | 63.2 µM (inactive) | > 44.7 µM (inactive) | > 25.9 µM (inactive) | > 80.2 µM (inactive) | > 100 µM (inactive) | > 28.4 µM (inactive) | 39 µM (inactive) | 23.3 µM (inactive) | > 64.3 µM (inactive) | > 26.5 µM (inactive) | 65.8 µM (inactive) | > 65 µM (inactive) | > 100 µM (inactive) | 0.893 µM (active) | 19 µM (inactive) | > 68.1 µM (inactive) | 19.5 µM (inactive) | > 42 µM (inactive)
2 | COc1ccc(C(=O)c2c3cc(OC)c(OC)c(OC)c3cc[n+]2C)cc1 |  | 28.2 µM (inactive) | 20.1 µM (inactive) |  |  | 50.2 µM (inactive) | 29.6 µM (inactive) |  | 40 µM (inactive) |  |  | 39.6 µM (inactive) | 19.7 µM (inactive) |  | 24.9 µM (inactive) |  |  | 18.6 µM (inactive) | 14.8 µM (inactive) | 
